# According to publication PMC10185773, “Interactions of the protein tyrosine phosphatase PTPN3 with viral and cellular partners through its PDZ domain: insights into structural determinants and phosphatase activity” (Frontiers in Molecular Biosciences, 2023):
# Read-outs that look alike come from different tables or passages of the source.
# B1: PBM-TACE peptide (last C-terminal 12 residues of TACE) (peptide)
# peptide: RQNRVDSKETEC
# notes: last C-terminal 12 residues of TACE (tumor necrosis factor alpha-convertase, ADAM17), encompassing the PBM; also called PBM of the tumor necrosis factor-alpha converting enzyme; source: synthetic peptide (solid phase, Fmoc; Proteogenix)
# B2: PTPN4-PDZ of the holdup PDZome library (MBP fusion) (domain or fragment)
# chain: LIRMKPDENGRFGFNVKGGYDQKMPVIVSRVAPGTPADLCVPRLNEGDQVVLINGRDIAEHTHDQVVLFIKAS
# How the values were obtained:
# [1] = target: biotinylated peptide PBM-p38γ (12-mer, holdup bait); test: holdup assay; biotinylated PBM peptide on resin in 96-well plates; bacterial extracts with overexpressed MBP-PDZ domains incubated, filtered, flowthrough read by microfluidic capillary electrophoresis; binding intensity (BI), threshold 0.2
# PTPN4-PDZ [2] = test: Holdup assay (binding intensity), PTPN4-PDZ; design: species or system human; conditions: biotinylated 12-mer peptide on resin, MBP-PDZ bacterial extract, capillary electrophoresis, mean BI, significance threshold 0.2
# Method: (§1) The holdup assay was conducted against the biotinylated peptide PBM-p38γ (Supplementary Material S1) following previously established protocols ([Vincentelli et al., 2015]; [Duhoo et al., 2019]) with some slight modifications. In summary, we utilized a high-throughput technique to measure the affinities and specificities of motifs in a library of human PDZ domains, which involved the use of both robotic and microfluidic methodologies. To achieve this, we expressed 266 PDZ domains fused with the Maltose Binding Protein (MBP) tag, which constituted 97% of the human PDZome. Bacterial extracts containing overexpressed PDZ domains were incubated with PBM peptide-coated resins in 96-well plates, then filtered and evaluated using microfluidic capillary electrophoresis to determine binding intensities (BIs) in the flowthroughs. […]
# (§2) Then, we investigated the specificity profiles of the PBMs of the PTPN3-PDZ ligands p38γ and of HBc against the full human PDZome (library that contains all the known human PDZ domains) ([Duhoo et al., 2019]). […] 12-mer peptides encompassing the protein C-terminal PBM sequences linked to a biotinyl group are used as baits to quantify the interaction between PBMs and the library of human PDZ domains expressed in Escherichia coli ([Duhoo et al., 2019]). […]
# [3] = system: library of human PDZ domains (266 PDZ domains, 97% of the human PDZome); test: Holdup assay, PDZome-binding profile; conditions: holdup against human PDZome; about 10% of the PDZome
# Method: as §1, §2
# PTPN3-Bidomain = target: T1, PTPN3-Bidomain (Homo sapiens, UniProt P26045); test: pNPP hydrolysis by PTPN3-Bidomain pre-incubated with PBM peptide; format: biochemical; conditions: Bidomain 75 nM + large excess of peptide (molar ratio 600:1, 30 min at 25°C), pNPP 19 µM-10 mM, pH 7.5, 25°C, A410, three independent experiments; for Km: substrate-inhibition Michaelis-Menten fit
# T1 construct: 6xHis (N); made in house; host or cells: E. coli BL21 Star (DE3)
# T1 sequence (P26045 488-913): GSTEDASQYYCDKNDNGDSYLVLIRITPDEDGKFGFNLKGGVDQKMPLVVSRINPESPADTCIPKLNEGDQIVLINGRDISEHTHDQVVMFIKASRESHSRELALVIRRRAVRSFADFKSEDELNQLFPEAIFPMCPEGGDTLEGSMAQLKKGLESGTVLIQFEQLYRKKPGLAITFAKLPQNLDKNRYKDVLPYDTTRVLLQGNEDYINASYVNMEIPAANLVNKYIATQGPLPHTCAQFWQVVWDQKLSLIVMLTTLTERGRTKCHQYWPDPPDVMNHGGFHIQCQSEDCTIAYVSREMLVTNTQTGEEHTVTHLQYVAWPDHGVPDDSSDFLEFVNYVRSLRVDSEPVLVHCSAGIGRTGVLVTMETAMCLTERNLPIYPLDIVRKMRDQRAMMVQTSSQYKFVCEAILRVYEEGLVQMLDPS
# Method: We performed enzymatic assays on the constructs PTPN3-Bidomain, PTPN3-linker-PTP, PTPN3-shLinker-PTP (short linker, missing 23 residues) and PTPN3-PDZ (Figure 1). In all experiments, the phosphatase activity was assessed using the synthetic nonspecific phosphatase substrate p-nitrophenyl phosphate (pNPP), whose hydrolysis into p-nitrophenol (pNP) can be followed spectrophotometrically at 410 nm. Reactions were performed in 50 mM Tris-HCl, pH 7.5, 1 mM MgCl2, 150 mM NaCl, 0.5 mM.
# TCEP The initial reaction rates were measured independently at pH 7.5 and at 25°C. pNPP was assayed for concentrations ranging from 19 μM to 10 mM at an enzyme concentration of 75 nM. […] The experimental data was therefore fitted to a corrected Michaelis-Menten equation to take into consideration this inhibition.
# The equation is: Vo = Vmax [S]/(Km + [S] + [S]2/Ki) with Vo the initial rate, Vmax the maximal rate, [S] the substrate concentration and Ki the inhibition constant.
# Phosphatase activity was measured by following the hydrolysis of pNPP as previously described ([Maisonneuve et al., 2014]). Absorbances were measured continuously at 410 nm for pNP, using a Thermo Scientific UV spectrometer equilibrated at 25°C. Initial linear reaction rates were calculated during a 60 s reaction. The kcat and KM constants were deduced from fitting the Michaelis-Menten equation with the Prism software. The data are representative of three independent experiments.
# A large excess (molar ratio 600:1) of each peptide was incubated with PTPN3-Bidomain for 30’ at 25°C, and the initial rates of the dephosphorylation reaction were measured in the same range of pNPP concentrations.
# To assess whether the PBM binding to the PDZ domain releases the catalytic inhibition as observed for PTPN4 ([Maisonneuve et al., 2014]), we added the PBM peptides of the PTPN3 cellular partners, PBM-TACE and PBM-p38γ, and the viral peptides PBM-16E6, PBM-HBc, in large excess ([…]) to PTPN3-Bidomain (Figure 7A; Table 3). For all peptides, a 2-fold decrease in kcat compared to PTPN3-linker-PTP is measured, as in the unbound Bidomain, while the KM remained unaffected (Table 3). Thus, we concluded that the PBM binding has no effect on PTPN3 catalytic activity in our conditions. Accordingly, the specificity constants (kcat/KM) of the complexed Bidomain are in the same range in comparison with the values of PTPN3-Bidomain (Table 3).
# PTPN3-PDZ [4] = target: T2, PTPN3-PDZ (Homo sapiens, UniProt P26045); test: Holdup assay (binding intensity), PTPN3-PDZ; conditions: biotinylated 12-mer peptide on resin, MBP-PDZ bacterial extract, capillary electrophoresis, mean BI, significance threshold 0.2
# T2 construct: GST (N, cleaved yes); made in house; host or cells: E. coli BL21 Star (DE3)
# T2 sequence (P26045 510-582 limits assumed): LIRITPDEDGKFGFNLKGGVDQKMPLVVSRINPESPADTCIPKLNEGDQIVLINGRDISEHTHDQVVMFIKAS
# Method: as §1, §2
# PTPN4-PDZ [5] = conditions: holdup, biotinylated 12-mer peptide; threshold 0.2; ref Genera et al., 2021; cited from earlier work
# Description: (§3) We generated a PDZome-binding profile of PBM-p38γ. Mean values of binding intensities (BI) ranked based on affinity are reported in Supplementary Material S1. The highest BI values indicate the PDZ domains recognized with the best affinities by the peptides used as bait. […] In recent work we established the PDZome-binding profile of PBM-HBc with 28 PDZ domains also identified as significant binders ([Genera et al., 2021]). Thus, this similar number of P ...
# [6] = system: library of human PDZ domains (266 PDZ domains, 97% of the human PDZome); conditions: holdup against human PDZome; ref Genera et al., 2021; cited from earlier work
# Description: as §3
# PTPN3-PDZ [7] = target: T2, PTPN3-PDZ; conditions: holdup, biotinylated 12-mer peptide; threshold 0.2; ref Genera et al., 2021; cited from earlier work
# Description: as §3
# [8] = target: HPV18 E6 PBM (Human papillomavirus type 18) (UniProt P06463); conditions: cited from earlier work
# Sequence of HPV18 E6 PBM (Human papillomavirus type 18) (P06463 whole entry, looked up): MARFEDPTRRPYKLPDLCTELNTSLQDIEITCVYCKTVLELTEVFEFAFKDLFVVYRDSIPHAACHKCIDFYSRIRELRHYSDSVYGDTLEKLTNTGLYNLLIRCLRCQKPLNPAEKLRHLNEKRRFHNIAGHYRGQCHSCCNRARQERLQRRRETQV
# p38γ PBM (Homo sapiens) = p38γ PBM (Homo sapiens) (UniProt P53778); conditions: cited from earlier work
# [9] = target: HPV16 E6 PBM (Human papillomavirus type 16) (UniProt P03126); conditions: cited from earlier work
# Sequence of HPV16 E6 PBM (Human papillomavirus type 16) (P03126 whole entry, looked up): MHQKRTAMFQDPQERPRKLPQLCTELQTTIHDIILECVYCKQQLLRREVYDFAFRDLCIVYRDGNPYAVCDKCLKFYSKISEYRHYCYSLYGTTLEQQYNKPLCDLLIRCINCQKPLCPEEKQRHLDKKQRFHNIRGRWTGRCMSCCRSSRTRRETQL
# [10] = target: HBc PBM (Hepatitis B virus) (UniProt P03149); conditions: cited from earlier work
# [11] = target: PTPN3 PDZ domain (PTPN3-PDZ) (human, UniProt P26045-1 510-582, Limits taken from the PDB 6HKS/8OEP/8CQY entity (offset 483, N-terminal GAMGS tag remnant left out); the end at 597 agrees with the printed linker start at 598. 15N-labelled for NMR.); test: NMR titration; 1H,15N HSQC chemical shift perturbations of 15N-labelled PTPN3-PDZ (117 μM); PBM-TACE added stepwise, PDZ:peptide 1:0 to 1:8.5, 11 points; 15°C; 50 mM Tris/HCl pH 7.5, 150 mM NaCl, 0.5 mM TCEP, 5% D2O; 1:1 model, 14 peaks; conditions: both partners purified
molecule,measurement,setting,value
PTPN3-PDZ of the holdup PDZome library (MBP fusion) (from UniProt P26045-1 510-582) (domain or fragment),binding intensity (BI),[1],0.52
WARVS K E T P L [PBM-p38γ],binding intensity (BI),PTPN4-PDZ [2],0.60
same,number of PDZ domains with significant binding (BI greater than 0.2),[3],28 PDZ domains
same,Km,PTPN3-Bidomain,1200 ± 300 µM
same,k cat of pNPP hydrolysis,PTPN3-Bidomain,1.7 ± 0.2 s^-1
same,binding intensity (BI),PTPN3-PDZ [4],0.52
RRRRSQS R E S Q C [PBM-HBc],binding intensity (BI),PTPN4-PDZ [5],0.58
same,number of PDZ domains identified as significant binders,[6],28 PDZ domains
same,binding intensity (BI),PTPN3-PDZ [7],0.45
same,Km,PTPN3-Bidomain,1300 ± 100 µM
same,k cat of pNPP hydrolysis,PTPN3-Bidomain,1.6 ± 0.1 s^-1
PTPN3 PDZ (from UniProt P26045),Kd,[8],37 µM
same,Kd,p38γ PBM (Homo sapiens),26 µM
same,Kd,[9],53 µM
same,Kd,[10],29 µM
RSSRTR R E T Q L [PBM-16E6],Km,PTPN3-Bidomain,800 ± 100 µM
same,k cat of pNPP hydrolysis,PTPN3-Bidomain,1.5 ± 0.1 s^-1
B1,Kd,[11],30 µM
B2,binding intensity (BI),[1],0.6
